Test results reported in patent US12234233B2, “Crystal form of phosphodiesterase inhibitor, preparation method therefor and use thereof” (TRANSTHERA SCIENCES (NANJING), INC., priority 2019, dated 2025).

What was measured:
[1] = Pharmacokinetic evaluation in rats; assay type: in vivo, male SD rats
Method: Test substances: the compound of formula (I) was prepared by example 1 of the present invention, and the crystal form I was prepared by example 2 of the present invention.
Administration to Animals and Sample Collection:
(§1) the compound of formula (I) for the experiment was dissolved with 2% DMSO+10% PEG400+88% (28% HP-3-CD) physiological saline to prepare a solution; the solution of the test substance was administered to SD rats by gavage at a dose of 5.0 mg/kg; and the blood sampling time points were 15 min, 30 min, 1 h, 2 h, 4 h, 6 h, 8 h and 24 h after administration.
as §1, with “The compound” for “the compound”, “by intravenous bolus” for “by gavage”, “of 1” for “of 5.0”, “were 5 min,” for “were”
The crystal form I for the experiment was dissolved with 5% DMSO+10% PEG400+85% (20% captisol) physiological saline solution to prepare a solution; the solution of the test substance was administered to SD rats by gavage at a dose of 60.0 mg/kg; and the blood sampling time points were 15 min, 30 min, 1 h, 2 h, 4 h, 8 h, 24 h, 30 h and 48 h after administration.
The crystal form I for the experiment was dissolved with 2% DMSO+10% PEG400+88% (28% HP-β-CD) physiological saline to prepare a solution; the solution of the test substance was administered to SD rats by intravenous bolus at a dose of 5 mg/kg; and the blood sampling time points were 5 min, 15 min, 30 min, 1 h, 4 h, 8 h, 12 h and 24 h after administration.
Compound of formula (I): the ordinary SD rats were used and fixed; the tails of the rats were heated in a water bath 10 minutes before each time point; and about 100 μL of blood was collected via a tail vein, and then placed in an anticoagulation tube containing EDTA-K2. The blood sample was centrifuged at 8000 rpm at 4° C. for 6 min to obtain a plasma sample, which was prepared within 30 minutes after blood collection. The plasma was stored in a refrigerator at −80° C. before the test.
Crystal form I: the rats were subjected to jugular vein cannulation (JVC); each time, about 0.35 ml of blood was collected from the rats via a jugular vein cannula into a centrifuge tube containing 5 μl of 15% EDTA-K2; the mixture was gently mixed to obtain a homogeneous mixture, and then the centrifuge tube was placed in an ice bath immediately. Within 1 hour after collecting whole blood, the mixture was centrifuged at 4° C. and 2400×g for 5 minutes, and the supernatant was immediately collected to obtain a plasma sample. The plasma was stored in a refrigerator at −80° C. before the test.
the plasma sample to be tested was taken out from the −80° C. refrigerator, subjected to natural melting at room temperature, and then vortexed for 5 min; […] of the plasma sample was precisely pipetted into a 1.5 mL centrifuge tube; […] of the internal standard working solution (tolbutamide in methanol) at a concentration of 100 ng/mL was added, and the mixture was mixed homogeneously; the homogeneous mixture was vortexed for 5 min, and then centrifuged at 12000 rpm for 5 min; 50 μL of the supernatant was precisely pipetted into a 96-well plate pre-filled with 150 μL of water/well; and the plate was vortexed for 5 min for homogenization, and subjected to LC-MS/MS assay, with a sample loading volume of 5 μL. […]

[2] = Solubility in test solutions at different pHs and water; assay type: physicochemical; conditions: 37° C.
Method: (§2) Test substances: the compound of formula (I) was prepared by example 1 of the present invention, the crystal form I was prepared by example 2 of the present invention, the crystal form II was prepared by example 16 of the present invention, the crystal form III was prepared by example 20 of the present invention, the crystal form IV was prepared by example 24 of the present invention, the crystal form V was prepared by example 25 of the present invention, the crystal form VI was prepared by example 27 of the present invention, and the crystal form VII was prepared by example 31 of the present invention.
Preparation of Buffered Salt Solutions at Different pHs:
hydrochloric acid solution at pH 1.0:9 ml of hydrochloric acid was pipetted, and water was added for dilution to 1000 ml; the mixture was mixed homogeneously to obtain a hydrochloric acid solution at pH 1.03. Phosphate buffered solution at pH 4.5:1.56 g of sodium dihydrogen phosphate dihydrate was weighed, and 200 ml of water was added to obtain a phosphate buffered solution at pH 4.50. Phosphate buffered solution at pH 6.8:1.56 g of sodium dihydrogen phosphate dihydrate was weighed, and 200 ml of water was added; and the mixture was adjusted to pH 6.80 with 1 mol/L sodium hydroxide solution.
preparation of buffered solutions at different pHs (samples for determining solubility):
50 mg of each test substance was weighed, and 5 ml of the hydrochloric acid solution (pH 1.0) was added; and the mixture was mixed homogeneously with shaking. About 2.5 mg of each test substance was weighed, and 5 ml of the phosphate buffered solution (pH 4.5), 5 ml of the phosphate buffered solution (pH 6.8), and 5 ml of ultrapure water were added, respectively; the mixture was mixed homogeneously with shaking, and then placed in a 37° C. water bath shaker for shaking; the samples were collected at 24 hours and subjected to centrifugation; and the supernatant was taken and directly injected (if the solubility was high, the supernatant was diluted with a 0.1 mol/L hydrochloric acid solution to an appropriate multiple and then injected).
The solubility of the samples was quantitatively calculated according to the single-point external standard method.

[3] = Stability test of different crystal forms; assay type: physicochemical
Method: as §2, with “substances:” for “substances: the compound of formula (I) was prepared by example 1 of the present invention,”
Method: the appropriate amount of different test substances were taken, and placed at 105° C. for 3 days, and at 60° C. and RH 92.5% under light for 5 days and 10 days, respectively; and the samples were collected on day 0, day 3, day 5 and day 10 to investigate the changes in the trait and content of the samples.
Table 5 and Table 6 show the results of the trait and content after placement at 105° C. for 3 days. Table 7 and Table 8 show the results of the trait and content after placement at 60° C. and RH 92.5% under light for 5 days. Table 9 and Table 10 show the results of the trait and content after placement at RH 92.5% under light for 10 days.

[4] = male SD rats, intravenous bolus 1 mg/kg
[5] = pH 1.0 hydrochloric acid solution
[6] = pH 4.5 phosphate buffered solution
[7] = pH 6.8 phosphate buffered solution

| SMILES | 24-hour solubility ([2]; Water) [mg/mL] | 24-hour solubility [2, 5] [mg/mL] | 24-hour solubility [2, 6] [mg/mL] | 24-hour solubility [2, 7] [mg/mL] | Content ([3]; 0 day) [%] | Trait ([3]; 0 day) | Content ([3]; Placed at RH 92.5% for 10 days) [%] | Trait ([3]; Placed at RH 92.5% for 10 days) | Content ([3]; Placed under light for 10 days) [%] | Trait ([3]; Placed under light for 10 days) | Content ([3]; Placed at 60° C. for 5 days) [%] | Content ([3]; Placed at 105° C. for 3 days) [%] | Trait ([3]; Placed at 105° C. for 3 days) | Content ([3]; Placed at RH 92.5% for 5 days) [%] | Content ([3]; Placed under light for 5 days) [%] | further results |
| --- | --- | --- | --- | --- | --- | --- | --- | --- | --- | --- | --- | --- | --- | --- | --- | --- |
| CCc1cc2c(N3CCC(C)(OC)CC3)c(C#N)c(=O)[nH]c2cn1 [Compound of formula (I), 6-ethyl-4-(4-methoxy-4-methylpiperidin-1-yl)-2-oxo-1,2-dihydro-1,7-diazanaphthal ene-3-carbonitrile] | 0.17 | 5.27 | 0.16 | 0.16 |  |  |  |  |  |  |  |  |  |  |  | Tmax ([1]; Sprague-Dawley, rat, plasma, po, male SD rats, gavage 5.0 mg/kg): 30 min; pharmacokinetic characteristics ([1]; conclusion from Table 2, rats): excellent pharmacokinetic characteristics; AUClast PO/Dose ([1]; male SD rats, gavage 5.0 mg/kg): 387.2 h*ng/mL per mg/kg; tz1/2 PO ([1]; male SD rats, gavage 5.0 mg/kg): 2.68 h; AUClast iv/Dose [1, 4]: 748 h*ng/mL per mg/kg; Cl_obs iv [1, 4]: 1.45 L/h/kg; Vz_obs iv [1, 4]: 2.13 L/kg; tz1/2 iv [1, 4]: 1.25 h |
| CCc1cc2c(N3CCC(C)(OC)CC3)c(C#N)c(=O)[nH]c2cn1 [Crystal form V, 6-ethyl-4-(4-methoxy-4-methylpiperidin-1-yl)-2-oxo-1,2-dihydro-1,7-diazanaphthal ene-3-carbonitrile] | 0.33 | 4.67 | 0.35 | 0.36 | 97.3 | Yellow powder | 97.4 | Yellow powder | 98.1 | Yellow powder |  |  |  |  |  |  |
| CCc1cc2c(N3CCC(C)(OC)CC3)c(C#N)c(=O)[nH]c2cn1 [Crystal form VI, 6-ethyl-4-(4-methoxy-4-methylpiperidin-1-yl)-2-oxo-1,2-dihydro-1,7-diazanaphthal ene-3-carbonitrile] | 0.26 |  | 0.17 | 0.14 | 99.9 | Yellow powder |  |  |  |  | 99.8 | 99.7 | Yellow powder | 99.9 | 99.6 |  |
| CCc1cc2c(N3CCC(C)(OC)CC3)c(C#N)c(=O)[nH]c2cn1 [Crystal form III, 6-ethyl-4-(4-methoxy-4-methylpiperidin-1-yl)-2-oxo-1,2-dihydro-1,7-diazanaphthal ene-3-carbonitrile] | 0.23 |  | 0.15 | 0.12 | 99.9 | Yellow powder |  |  |  |  | 99.9 | 99.7 | Yellow powder | 99.9 | 99.8 |  |
| CCc1cc2c(N3CCC(C)(OC)CC3)c(C#N)c(=O)[nH]c2cn1 [Crystal form IV, 6-ethyl-4-(4-methoxy-4-methylpiperidin-1-yl)-2-oxo-1,2-dihydro-1,7-diazanaphthal ene-3-carbonitrile] | 0.14 | 1.64 | 0.13 | 0.13 | 90.9 | Yellow powder | 90.8 | Yellow powder | 90.9 | Yellow powder |  |  |  |  |  |  |
| CCc1cc2c(N3CCC(C)(OC)CC3)c(C#N)c(=O)[nH]c2cn1 [Crystal form VII, 6-ethyl-4-(4-methoxy-4-methylpiperidin-1-yl)-2-oxo-1,2-dihydro-1,7-diazanaphthal ene-3-carbonitrile] | 0.15 | 7.55 | 0.14 | 0.13 | 100.0 |  |  |  |  |  | 99.9 |  |  | 100.0 | 99.6 |  |
| CCc1cc2c(N3CCC(C)(OC)CC3)c(C#N)c(=O)[nH]c2cn1 [Crystal form II, 6-ethyl-4-(4-methoxy-4-methylpiperidin-1-yl)-2-oxo-1,2-dihydro-1,7-diazanaphthal ene-3-carbonitrile] | 0.16 | 4.54 | 0.16 | 0.14 | 99.8 | Yellow powder | 99.8 | Yellow powder | 99.4 | Yellow powder |  | 99.5 | Yellow powder |  |  |  |
